Measured values taken from the supplement of paper PMC10307832.

What was measured:
Test in all cases: relative viability (nuclei count vs DMSO), 5 days (fraction); higher = more cells survive
ChaGo-K-1 = tested on: ChaGo-K-1
How it was run: (§1)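 Values are medians from duplicate plates. Each reflects relative viability, defined as the nuclei count of treated wells over that of vehicle wells. Lung cancer cell lines in 1536-well plates were pin-tool dosed one day after seeding with one drug alone or with a fixed anchor-drug dose plus five library-drug doses (not always all listed) in √10 steps, then fixed, stained and imaged at 4× after 5 days.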

EMC-BAC-2 = tested on: EMC-BAC-2
How it was run: as §1

EPLC-272H = tested on: EPLC-272H
How it was run: as §1

HCC-366 = tested on: HCC-366
How it was run: as §1

HCC-44 = tested on: HCC-44
How it was run: as §1

HCC-78 = tested on: HCC-78
How it was run: as §1

HCC-827 = tested on: HCC-827
How it was run: as §1

LCLC-103H = tested on: LCLC-103H
How it was run: as §1

LK-2 = tested on: LK-2
How it was run: as §1

LOU-NH91 = tested on: LOU-NH91
How it was run: as §1

LU99A = tested on: LU99A
How it was run: as §1

LXF-289 = tested on: LXF-289
How it was run: as §1

SMILES: Clc1ccc(Nc2nnc(Cc3ccncc3)c3ccccc23)cc1 [Vatalanib] + O=C(CCCCCCC(=O)Nc1ccccc1)NO [Vorinostat] (partner 1 µM)
- relative viability (ChaGo-K-1; first compound 0.04 µM): 0.787
- relative viability (ChaGo-K-1; first compound 0.1265 µM): 0.758
- relative viability (ChaGo-K-1; first compound 0.4 µM): 0.848
- relative viability (ChaGo-K-1; first compound 1.265 µM): 0.766
- relative viability (ChaGo-K-1; first compound 4 µM): 0.788
- relative viability (EMC-BAC-2; first compound 0.04 µM): 0.448
- relative viability (EMC-BAC-2; first compound 0.1265 µM): 0.414
- relative viability (EMC-BAC-2; first compound 0.4 µM): 0.392
- relative viability (EMC-BAC-2; first compound 4 µM): 0.457
- relative viability (EPLC-272H; first compound 0.04 µM): 0.438
- relative viability (EPLC-272H; first compound 0.1265 µM): 0.702
- relative viability (EPLC-272H; first compound 0.4 µM): 0.499
- relative viability (EPLC-272H; first compound 1.265 µM): 0.617
- relative viability (EPLC-272H; first compound 4 µM): 0.561
- relative viability (HCC-366; first compound 0.04 µM): 0.361
- relative viability (HCC-366; first compound 0.1265 µM): 0.434
- relative viability (HCC-366; first compound 0.4 µM): 0.451
- relative viability (HCC-366; first compound 1.265 µM): 0.254
- relative viability (HCC-366; first compound 4 µM): 0.394
- relative viability (HCC-44; first compound 0.04 µM): 1.11
- relative viability (HCC-44; first compound 0.1265 µM): 1.08
- relative viability (HCC-44; first compound 0.4 µM): 1.09
- relative viability (HCC-44; first compound 1.265 µM): 1.04
- relative viability (HCC-44; first compound 4 µM): 1.07
- relative viability (HCC-78; first compound 0.04 µM): 0.425
- relative viability (HCC-78; first compound 0.1265 µM): 0.478
- relative viability (HCC-78; first compound 0.4 µM): 0.49
- relative viability (HCC-78; first compound 1.265 µM): 0.465
- relative viability (HCC-78; first compound 4 µM): 0.424
- relative viability (HCC-827; first compound 0.04 µM): 0.767
- relative viability (HCC-827; first compound 0.1265 µM): 0.953
- relative viability (HCC-827; first compound 1.265 µM): 0.741
- relative viability (HCC-827; first compound 4 µM): 0.86
- relative viability (LCLC-103H; first compound 0.04 µM): 0.776
- relative viability (LCLC-103H; first compound 0.1265 µM): 0.765
- relative viability (LCLC-103H; first compound 0.4 µM): 0.826
- relative viability (LCLC-103H; first compound 1.265 µM): 0.738
- relative viability (LCLC-103H; first compound 4 µM): 0.726
- relative viability (LK-2; first compound 0.04 µM): 0.388
- relative viability (LK-2; first compound 0.1265 µM): 0.314
- relative viability (LK-2; first compound 0.4 µM): 0.328
- relative viability (LK-2; first compound 1.265 µM): 0.308
- relative viability (LK-2; first compound 4 µM): 0.222
- relative viability (LOU-NH91; first compound 0.04 µM): 0.939
- relative viability (LOU-NH91; first compound 0.1265 µM): 0.874
- relative viability (LOU-NH91; first compound 0.4 µM): 0.955
- relative viability (LOU-NH91; first compound 1.265 µM): 0.783
- relative viability (LOU-NH91; first compound 4 µM): 0.882
- relative viability (LU99A; first compound 0.04 µM): 0.554
- relative viability (LU99A; first compound 0.1265 µM): 0.544
- relative viability (LU99A; first compound 0.4 µM): 0.535
- relative viability (LU99A; first compound 1.265 µM): 0.472
- relative viability (LU99A; first compound 4 µM): 0.467
- relative viability (LXF-289; first compound 0.04 µM): 0.844
- relative viability (LXF-289; first compound 0.1265 µM): 0.832
